The values below are quoted from earlier work in patent US20180280392A1, “PHARMACEUTICAL PREPARATION COMPRISING CYCLIN INHIBITOR AND PREPARATION METHOD THEREOF” (Jiangsu Hansoh Pharmaceutical Group Co., Ltd., priority 2014, published 2018).

The test system of this series is phosphorylation of retinoblastoma tumor suppressor (RB) in MDA-MB-435 breast cancer cells.

Like-named read-outs stand apart in the source and are kept apart here.

`CC(=O)c1c(C)c2cnc(Nc3ccc(N4CCNCC4)cn3)nc2n(C2CCCC2)c1=O` [compound of formula I, 6-acetyl-8-cyclopentyl-5-methyl-2-(5-piperazin-1-yl-pyridin-2-yl-amino)-8H-pyrido[2,3-d]pyrimidin-7-one]: the IC50 (usually the concentration needed to halve the response being measured) (Ser780 site, read-out: IC50, reduction of phosphorylation of RB on Ser780) is 66 nM and the IC50 (Ser795 site, read-out: IC50, reduction of phosphorylation of RB on Ser795) is 63 nM.
